Tests used:
[1] = molecular target: T1, Palmitoleoyl-protein carboxylesterase NOTUM (Homo sapiens, UniProt Q6P988); assay: Inhibition of Notum 1 (unknown origin) expressed in HEK293 cells harbouring TCF/LEF luciferase reporter gene assessed as modulation of Wnt/beta-catenin signalling pathway preincubated with recombinant Wnt-3A for 1 hr followed by addition to reporter cell plate incubated overnight by luminescence based microplate reader analysis
T1 sequence (Q6P988 whole entry): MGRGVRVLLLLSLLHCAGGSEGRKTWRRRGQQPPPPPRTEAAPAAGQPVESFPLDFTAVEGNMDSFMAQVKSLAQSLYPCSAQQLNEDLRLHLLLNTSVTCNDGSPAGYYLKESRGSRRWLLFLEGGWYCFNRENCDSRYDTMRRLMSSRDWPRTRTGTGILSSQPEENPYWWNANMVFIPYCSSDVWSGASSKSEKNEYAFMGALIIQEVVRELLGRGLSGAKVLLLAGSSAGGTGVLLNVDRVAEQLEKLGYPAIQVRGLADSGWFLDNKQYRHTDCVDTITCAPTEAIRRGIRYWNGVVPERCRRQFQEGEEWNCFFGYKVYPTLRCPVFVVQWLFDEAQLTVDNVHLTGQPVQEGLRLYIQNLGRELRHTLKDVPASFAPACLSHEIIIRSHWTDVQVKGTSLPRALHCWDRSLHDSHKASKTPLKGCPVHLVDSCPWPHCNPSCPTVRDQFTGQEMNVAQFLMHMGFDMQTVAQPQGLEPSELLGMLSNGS

[2] = molecular target: T1, Palmitoleoyl-protein carboxylesterase NOTUM; assay: Binding affinity to glycosylated Notum 1 (unknown origin) assessed as change in melting temperature at 30 uM by SYPRO orange dye based thermal shift assay
[3] = molecular target: T1, Palmitoleoyl-protein carboxylesterase NOTUM; assay: Binding affinity to glycosylated Notum 1 (unknown origin) assessed as maximum change in melting temperature at 1 mM by SYPRO orange dye based thermal shift assay; settings: 1000 µM
[4] = molecular target: T1, Palmitoleoyl-protein carboxylesterase NOTUM; assay: Binding affinity to glycosylated Notum 1 (unknown origin) assessed as change in melting temperature at 8 uM by SYPRO orange dye based thermal shift assay

Row | SMILES | EC50 [1] | deltaTm [2] | deltaTm [3] | deltaTm [4]
1 | O=C(CCC(=O)N1CCc2ccccc21)OCC(F)F | 0.3 µM |  |  | 
2 | O=C(O)CCC(=O)N1CCc2ccccc21 |  | 1 °C | 2.5 °C | 
3 | COC(=O)CCC(=O)N1CCc2ccccc21 |  | 5 °C | 10 °C | 2 °C

— ChEMBL document CHEMBL5029153, “Structural Insights into Notum Covalent Inhibition” (J Med Chem, 2021)
